Measurements reported in ChEMBL document CHEMBL1795340, “A discovery of novel Mycobacterium tuberculosis pantothenate synthetase inhibitors based on the molecular mechanism of actinomycin D inhibition” (Bioorg Med Chem Lett, 2011).
≈ marks a conversion by molar mass, not a printed value. Counter-ions that a name gives are not always drawn. Numbered stars: 1 amine (or outer) side, 2 acyl side, 3 side chain; on linkers, the order of the positions; unused ones are H or OH. Bridge positions count the residues as written; N and C are the ends. Square brackets hold non-standard residues; d marks the D form. Peptide text beside a SMILES is read from it. I, II: the chains in the order shown. Actinocin(9to1) = Cc1c2oc3c(C)ccc(C(=O)[*:1])c3nc-2c(C(=O)[*:2])c(N)c1=O; NMeV = CN[C@H](C(=O)O)C(C)C; Sar = CNCC(=O)O

Columns and labels:
Pantothenate synthetase [1] = target: T1, Pantothenate synthetase (Mycobacterium tuberculosis, UniProt P9WIL5); assay: Inhibition of Mycobacterium tuberculosis pantothenate synthetase by high throughput screening method
T1 sequence (P9WIL5 whole entry): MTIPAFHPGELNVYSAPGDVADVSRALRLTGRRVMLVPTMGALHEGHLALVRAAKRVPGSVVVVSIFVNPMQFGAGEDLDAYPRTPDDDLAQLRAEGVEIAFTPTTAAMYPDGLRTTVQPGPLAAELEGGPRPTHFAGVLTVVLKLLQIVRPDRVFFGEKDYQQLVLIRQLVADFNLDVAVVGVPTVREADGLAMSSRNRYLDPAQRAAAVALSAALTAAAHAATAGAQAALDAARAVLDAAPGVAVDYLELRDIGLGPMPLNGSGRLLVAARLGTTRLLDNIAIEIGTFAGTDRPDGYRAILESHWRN

Pantothenate synthetase [2] = target: T1, Pantothenate synthetase; assay: Competitive inhibition of Mycobacterium tuberculosis pantothenate synthetase using ATP by Dixon plot analysis
[3] = target: T2, Pantothenate synthetase (Mycobacterium tuberculosis) (UniProt P9WIL5); assay: Inhibition of Mycobacterium tuberculosis pantothenate synthetase at 50 uM by high throughput screening method relative to control
T2 sequence (whole entry): T1 sequence (P9WIL5 whole entry)

Pantothenate synthetase [4] = target: T1, Pantothenate synthetase; assay: Competitive inhibition of Mycobacterium tuberculosis pantothenate synthetase using beta-alanine by Dixon plot analysis
[5] = system: Mycobacterium tuberculosis; assay: Antimycobacterial activity against Mycobacterium tuberculosis H37Rv; assay type: functional

| Compound | IC50 (Pantothenate synthetase [1]) | Ki (Pantothenate synthetase [2]) | inhibition [3] | Ki (Pantothenate synthetase [4]) | MIC [5] |
| --- | --- | --- | --- | --- | --- |
| COC(=O)c1cc2c(OCc3ccccc3)cc(N)cc2[nH]1 | 22.4 µM | 1.4 µM | 69.4% | 19.7 µM | 54 µM (≈ 16 µg/mL) |
| C=C/C=C/C=C/c1cccc(NNC(=O)CCC(=O)O)c1 | – | – | 27.1% | – | – |
| Cc1c2oc3c(C)ccc(C(=O)N[C@@H]4C(=O)N[C@H](C(C)C)C(=O)N5CCC[C@H]5C(=O)N(C)CC(=O)N(C)[C@@H](C(C)C)C(=O)O[C@@H]4C)c3nc-2c(C(=O)N[C@@H]2C(=O)N[C@H](C(C)C)C(=O)N3CCC[C@H]3C(=O)N(C)CC(=O)N(C)[C@@H](C(C)C)C(=O)O[C@@H]2C)c(N)c1=O [DACTINOMYCIN] (I: T[dV]P[Sar][NMeV] / II: T[dV]P[Sar][NMeV]; ester I:1-I:C, II:1-II:C; linker I:N-II:N via Actinocin(9to1)) | 251 µM | – | – | – | – |
| CCN(CC)CCOC(=O)C(Cc1cccc2ccccc12)CC1CCCO1 (stereo not drawn) [NAFRONYL OXALATE] | 398 µM | – | – | – | – |
